Reference: DBAASP
Values after ≈ are worked out from the molar mass of the structure shown.

Tests used:
Assay in all cases: ≥ marks a high value that may be exact or a test limit, other limits are often not marked, values filed in µg/mL are converted to µM
[1] = test system: Enterococcus faecalis ATCC 29212
[2] = test system: Escherichia coli ATCC 25922
[3] = test system: Escherichia coli UB1005
[4] = test system: Salmonella enterica subsp. enterica serovar Choleraesuis CVCC 503
[5] = test system: Salmonella enterica subsp. enterica serovar Pullorum C79-13
[6] = test system: Salmonella enterica subsp. enterica serovar Typhimurium ATCC 14028
[7] = test system: Salmonella enterica subsp. enterica serovar Typhimurium C77-31
[8] = test system: Staphylococcus aureus ATCC 29213
[9] = test system: Staphylococcus aureus ATCC 43300
[10] = test system: Staphylococcus aureus
[11] = test system: Staphylococcus epidermidis ATCC 12228
[12] = test system: Streptococcus agalactiae
[13] = test system: Bacillus cereus
[14] = test system: Enterobacter cloacae
[15] = test system: Enterococcus faecalis
[16] = test system: Escherichia coli
[17] = test system: Leuconostoc lactis
[18] = test system: Listeria innocua
[19] = test system: Micrococcus luteus
[20] = test system: Pasteurella multocida
[21] = test system: Pseudomonas aeruginosa
[22] = test system: Staphylococcus aureus ATCC 25923
[23] = test system: Staphylococcus epidermidis
[24] = test system: Streptococcus uberis
[25] = test system: Bacillus subtilis 168
[26] = test system: Escherichia coli B
[27] = test system: Bacillus cereus AS1.126
[28] = test system: Enterococcus faecalis CGMCC 1.595
[29] = test system: Enterococcus faecium CGMCC 1.2334
[30] = test system: Escherichia coli AS1.349
[31] = test system: Lactococcus lactis AS1.1690
[32] = test system: Pseudomonas aeruginosa CGMCC 1.860
[33] = test system: Staphylococcus aureus AS1.72

SMILES	MIC [1] [µM]	MIC [2] [µM]	MIC [3] [µM]	MIC [5] [µM]	MIC [6] [µM]	MIC [7] [µM]	MIC [8] [µM]	MIC [9] [µM]	MIC [10] [µM]	MIC [11] [µM]	MIC [12] [µM]	MIC [4] [µM]	also measured
CC[C@H](C)[C@H](NC(=O)[C@@H](NC(=O)[C@@H]1CCCN1C(=O)[C@H](C)NC(=O)[C@@H](NC(=O)[C@H](Cc1cnc[nH]1)NC(=O)[C@@H]1CCCN1C(=O)[C@H](CC(C)C)NC(=O)[C@H](CC(C)C)NC(=O)[C@H](Cc1cnc[nH]1)NC(=O)[C@H](CCCCN)NC(=O)[C@H](C)NC(=O)[C@@H](NC(=O)[C@H](CO)NC(=O)CNC(=O)[C@H](CC(C)C)NC(=O)[C@@H](NC(=O)[C@H](CO)NC(=O)[C@H](Cc1ccccc1)NC(=O)[C@H](CC(C)C)NC(=O)CN)C(C)C)C(C)C)C(C)C)[C@@H](C)CC)C(=O)N[C@@H](C)C(=O)N[C@@H](CCC(=O)O)C(=O)N[C@@H](CCCCN)C(=O)N[C@@H](CC(C)C)C(N)=O [GLFSVLGSVAKHLLPHVAPIIAEKL]	–	–	–	–	–	–	4.6 (≈ 12 µg/mL)	–	–	–	–	–	MIC [13]: ≥ 38.3 µM; MIC [14]: ≥ 38.3 µM; MIC [15]: ≥ 38.3 µM; MIC [16]: > 38.3 µM; MIC [17]: 1.15 µM (≈ 3 µg/mL); MIC [18]: 9.58 µM (≈ 25 µg/mL); MIC [19]: 4.6 µM (≈ 12 µg/mL); MIC [20]: 9.58 µM (≈ 25 µg/mL); MIC [21]: > 38.3 µM; MIC [22]: 19.2 µM (≈ 50 µg/mL); MIC [23]: 4.6 µM (≈ 12 µg/mL); MIC [24]: 9.58 µM (≈ 25 µg/mL)
CC[C@H](C)[C@H](N)C(=O)N[C@@H](CS)C(=O)N[C@@H](CCCN=C(N)N)C(=O)N[C@@H](CCCCN)C(=O)N1CCC[C@H]1C(=O)N[C@H](C(=O)N[C@H](C(=O)N[C@@H](CS)C(=O)N[C@@H](CCCN=C(N)N)C(=O)N[C@@H](CCCCN)C(=O)N1CCC[C@H]1C(=O)N[C@H](C(=O)N[C@H](C(=O)N[C@@H](CS)C(=O)N[C@@H](CCCN=C(N)N)C(=O)N[C@@H](CCCCN)C(=O)N1CCC[C@H]1C(=O)N[C@H](C(N)=O)[C@@H](C)CC)[C@@H](C)CC)[C@@H](C)CC)[C@@H](C)CC)[C@@H](C)CC [ICRKPIICRKPIICRKPI]	> 64	8 (≈ 17.2 µg/mL)	4 (≈ 8.6 µg/mL)	≥ 64	8 (≈ 17.2 µg/mL)	8 (≈ 17.2 µg/mL)	> 64	> 64	> 64	> 64	≥ 64	16 (≈ 34.4 µg/mL)	–
CC(C)[C@H](N)C(=O)N[C@@H](Cc1c[nH]c2ccccc12)C(=O)N[C@@H](CCCN=C(N)N)C(=O)N[C@@H](CCCN=C(N)N)C(=O)N[C@@H](Cc1c[nH]c2ccccc12)C(=O)N[C@@H](CCCN=C(N)N)C(=O)N[C@@H](CCCN=C(N)N)C(=O)N[C@@H](Cc1ccccc1)C(=O)N[C@@H](Cc1c[nH]c2ccccc12)C(=O)O [VWRRWRRFW]	–	–	–	–	–	–	–	–	–	–	–	–	MIC [27]: 6.25 µM (≈ 9.05 µg/mL); MIC [28]: 12.5 µM (≈ 18.1 µg/mL); MIC [29]: 12.5 µM (≈ 18.1 µg/mL); MIC [30]: 12.5 µM (≈ 18.1 µg/mL); MIC [31]: 12.5 µM (≈ 18.1 µg/mL); MIC [32]: 6.25 µM (≈ 9.05 µg/mL); MIC [33]: 12.5 µM (≈ 18.1 µg/mL)

Further lines, with some results ahead:

MIC [1] [µM]	MIC [2] [µM]	MIC [3] [µM]	MIC [5] [µM]	MIC [6] [µM]	MIC [7] [µM]	MIC [8] [µM]	MIC [9] [µM]	MIC [10] [µM]	MIC [11] [µM]	MIC [12] [µM]	SMILES	MIC [4] [µM]	also measured
> 64	8 (≈ 15.1 µg/mL)	8 (≈ 15.1 µg/mL)	≥ 32	32 (≈ 60.5 µg/mL)	≥ 32	> 64	> 64	> 64	> 64	≥ 64	CC[C@H](C)[C@H](N)C(=O)N[C@H](C(=O)N[C@H](C(=O)N[C@@H](CS)C(=O)N[C@@H](CCCN=C(N)N)C(=O)N[C@@H](CCCCN)C(=O)N1CCC[C@H]1C(=O)N[C@H](C(=O)N[C@H](C(=O)N[C@@H](CS)C(=O)N[C@@H](CCCN=C(N)N)C(=O)N[C@@H](CCCCN)C(=O)N1CCC[C@H]1C(=O)N[C@H](C(=O)N[C@H](C(=O)N[C@H](C(N)=O)[C@@H](C)CC)[C@@H](C)CC)[C@@H](C)CC)[C@@H](C)CC)[C@@H](C)CC)[C@@H](C)CC)[C@@H](C)CC [IIICRKPIICRKPIII]	≥ 32	–
–	–	–	–	–	–	–	–	15.6 (≈ 28 µg/mL)	–	–	CC[C@H](C)[C@H](NC(=O)[C@H](CCCCN)NC(=O)[C@H](CCCCN)NC(=O)[C@H](CC(C)C)NC(=O)[C@@H](NC(=O)[C@H](CCCCN)NC(=O)[C@H](CCCCN)NC(=O)[C@H](Cc1c[nH]c2ccccc12)NC(=O)[C@H](CC(N)=O)NC(=O)[C@@H](N)C(C)C)C(C)C)C(=O)N[C@H](C(=O)N[C@@H](CCCCN)C(=O)N[C@H](C(=O)N[C@@H](C)C(=O)N[C@@H](CCCCN)C(N)=O)C(C)C)[C@@H](C)CC [VNWKKVLKKIIKVAK]	–	MIC [25]: 0.7 µM (≈ 1.26 µg/mL); MIC [26]: 0.7 µM (≈ 1.26 µg/mL); MIC [21]: 19 µM (≈ 34.1 µg/mL)
> 64	8 (≈ 22 µg/mL)	8 (≈ 22 µg/mL)	≥ 64	8 (≈ 22 µg/mL)	8 (≈ 22 µg/mL)	> 64	> 64	> 64	> 64	≥ 64	CC(C)[C@H](N)C(=O)N[C@@H](CS)C(=O)N[C@@H](CCCN=C(N)N)C(=O)N[C@@H](CCCCN)C(=O)N1CCC[C@H]1C(=O)N[C@H](C(=O)N[C@H](C(=O)N[C@@H](CS)C(=O)N[C@@H](CCCN=C(N)N)C(=O)N[C@@H](CCCCN)C(=O)N1CCC[C@H]1C(=O)N[C@H](C(=O)N[C@H](C(=O)N[C@@H](CS)C(=O)N[C@@H](CCCN=C(N)N)C(=O)N[C@@H](CCCCN)C(=O)N1CCC[C@H]1C(=O)N[C@H](C(=O)N[C@H](C(=O)N[C@@H](CS)C(=O)N[C@@H](CCCN=C(N)N)C(=O)N[C@@H](CCCCN)C(=O)N1CCC[C@H]1C(=O)N[C@H](C(N)=O)C(C)C)C(C)C)C(C)C)C(C)C)C(C)C)C(C)C)C(C)C [VCRKPVVCRKPVVCRKPVVCRKPV]	≥ 64	–
8 (≈ 26.5 µg/mL)	–	2 (≈ 6.63 µg/mL)	4 (≈ 13.3 µg/mL)	2 (≈ 6.63 µg/mL)	2 (≈ 6.63 µg/mL)	–	4 (≈ 13.3 µg/mL)	4 (≈ 13.3 µg/mL)	4 (≈ 13.3 µg/mL)	2 (≈ 6.63 µg/mL)	CC[C@H](C)[C@H](N)C(=O)N[C@H](C(=O)N[C@H](C(=O)N[C@@H](CS)C(=O)N[C@@H](CCCN=C(N)N)C(=O)N[C@@H](CCCCN)C(=O)N1CCC[C@H]1C(=O)N[C@H](C(=O)N[C@H](C(=O)N[C@@H](CS)C(=O)N[C@@H](CCCN=C(N)N)C(=O)N[C@@H](CCCCN)C(=O)N1CCC[C@H]1C(=O)N[C@H](C(=O)N[C@H](C(=O)N[C@@H](CS)C(=O)N[C@@H](CCCN=C(N)N)C(=O)N[C@@H](CCCCN)C(=O)N1CCC[C@H]1C(=O)N[C@H](C(=O)N[C@H](C(=O)N[C@@H](CS)C(=O)N[C@@H](CCCN=C(N)N)C(=O)N[C@@H](CCCCN)C(=O)N1CCC[C@H]1C(=O)N[C@H](C(=O)N[C@H](C(=O)N[C@H](C(N)=O)[C@@H](C)CC)[C@@H](C)CC)[C@@H](C)CC)[C@@H](C)CC)[C@@H](C)CC)[C@@H](C)CC)[C@@H](C)CC)[C@@H](C)CC)[C@@H](C)CC)[C@@H](C)CC)[C@@H](C)CC [IIICRKPIICRKPIICRKPIICRKPIII]	2 (≈ 6.63 µg/mL)	–
